# Experimental data: PMC9007350, “Aurintricarboxylic acid is a canonical disruptor of the TAZ-TEAD transcriptional complex” (PLoS ONE, 2022)
# Experiments:
# TAZ = biological target: T1, TAZ (Homo sapiens, UniProt Q9GZV5); assay: ThermoFluor assay, TAZ; assay type: binding; conditions: full-length TAZ, protein 5 μM
# T1 construct: ThermoFluor assays measuring the melting temperatures (Tm) of full-length TAZ or TEAD in the presence of ATA; strep (C); made in house; host or cells: Escherichia coli BL21(DE3)pLysS
# T1 sequence (Q9GZV5 whole entry): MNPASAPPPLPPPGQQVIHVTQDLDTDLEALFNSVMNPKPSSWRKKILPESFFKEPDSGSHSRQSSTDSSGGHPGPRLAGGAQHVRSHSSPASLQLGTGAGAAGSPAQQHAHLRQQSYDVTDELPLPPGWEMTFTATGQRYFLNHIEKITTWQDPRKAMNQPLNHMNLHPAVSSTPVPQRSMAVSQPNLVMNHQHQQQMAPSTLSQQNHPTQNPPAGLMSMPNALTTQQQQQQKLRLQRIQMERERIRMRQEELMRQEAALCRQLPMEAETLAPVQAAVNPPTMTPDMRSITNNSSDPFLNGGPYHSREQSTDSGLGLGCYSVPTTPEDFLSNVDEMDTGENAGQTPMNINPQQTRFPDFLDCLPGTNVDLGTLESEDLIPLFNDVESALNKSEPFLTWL
# Description: To assess changes in protein stability, a dye-based thermal melting assay (ThermoFluor) was used. Purified protein (TAZ or TEAD4), ATA, and Protein Thermal Shift dye (ThermoFisher) were mixed in 96-well plates. The final concentration of the protein was 5 μM. The melting temperature was measured using LightCycler 480 (Roche). Each experiment was repeated at least twice.
# [1] = biological target: T2, YAP/TAZ-binding domain of human TEAD4 (217-434), deacylated (Homo sapiens, UniProt Q15561); assay: Surface plasmon resonance; conditions: one-site binding fit of steady-state response versus concentration; read-out: Kd, affinity between TEAD and ATA
# T2 construct: made in house
# T2 sequence (Q15561 217-434): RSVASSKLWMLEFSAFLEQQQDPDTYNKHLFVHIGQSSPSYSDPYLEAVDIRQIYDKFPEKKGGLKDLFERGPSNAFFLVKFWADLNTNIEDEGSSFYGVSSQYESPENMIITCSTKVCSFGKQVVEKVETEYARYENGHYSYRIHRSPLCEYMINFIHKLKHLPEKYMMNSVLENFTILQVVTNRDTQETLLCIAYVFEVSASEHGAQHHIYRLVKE
# Description: The YAP/TAZ-binding domain of human TEAD4 (217–434) was deacylated and resuspended in 10 mM acetate buffer pH 5.0. TEAD was immobilized on a CM5 sensor chip (Cytiva, product, BR100530) using the amine coupling kit (Cytiva, product, BR10050) as per manufacturer’s guidelines. Various concentrations of ATA were dissolved in buffer containing 20 mM Tris pH 8.0, 150 mM NaCl, 1.5% DMSO and passed over the reference cell and the cell containing immobilized TEAD, and the resonance responses were recorded.
# [2] = test system: TC/TEAD transcriptional profile in TC-expressing NIH3T3 cells; assay: Bulk RNA-Seq, differential gene expression and GSEA (TC ATA v. TC DMSO); assay type: cell-based, murine
# Description: NIH3T3 and HEK293 cells were obtained from the American Type Tissue Collection (ATCC, Manassas, VA) and cultured in DMEM containing 10% fetal bovine serum and penicillin/streptomycin. A TEAD dual luciferase reporter assay was performed as previously described. Cells were treated with vehicle control or ATA (10 μM) for 48 h before measuring the luciferase activity or processing the samples for RNA extraction. Each experiment was repeated at least 2-3 times. NIH3T3 cells were used. The extracted RNA (RNeasy Mini, Qiagen) from treated cells was either used for qPCR measurements or sent for bulk RNA-Seq. Sequencing runs were performed on an Illumina HiSeq 4000 sequencer (Genewiz). Subsequent bioinformatics analysis was performed in the Galaxy Project platform. Paired end reads were aligned to the murine genome ([…]2 [27]. Raw count files were generated with featureCounts using a corresponding GTF reference. Differential gene expression analysis was performed with DESeq2 [29]. Transcripts were considered to be differentially expressed if the false discovery rate < 0.05 and Log2FC > 2. When performing differential gene expression for GSEA analysis, the Limma package was used (<5 CPM filtering) with t-scores used for rank statistics. GSEA plots and statistics were generated with FGSEA with custom gene sets. Raw sequencing reads and processed files have been deposited in the GEO repository (data will be uploaded upon manuscript acceptance). The Universal Probe Library probes (Roche) and the associated primer sequences for the qPCR targets are listed below: […]
smiles,measurement,setting,value
"O=C(O)C1=CC(=C(c2ccc(O)c(C(=O)O)c2)c2ccc(O)c(C(=O)O)c2)C=CC1=O [ATA, aurintricarboxylic acid]",melting temperature (Tm) of TAZ + ATA,TAZ,53.1 °C
same,Kd,[1],3 µM
same,"Log2 Fold Change, Pkig (ENSMUSG00000035268)",[2],0.2955
same,GSEA normalized enrichment score (NES) for the 248 TC-upregulated genes,"[2]; ATA-treated vs vehicle, TC-expressing NIH3T3, 10 μM, 48 h, P = 0.0036",-2.027
same,"Log2 Fold Change, Cep83os (ENSMUSG00000097164)","[2]; TC ATA v. TC DMSO, RNA-Seq differential gene expression, gene Cep83os",0.5451
same,"Log2 Fold Change, P3h1 (ENSMUSG00000028641)","[2]; TC ATA v. TC DMSO, RNA-Seq differential gene expression, gene P3h1",0.1936
same,"Log2 Fold Change, Per1 (ENSMUSG00000020893)","[2]; TC ATA v. TC DMSO, RNA-Seq differential gene expression, gene Per1",0.3113
same,"Log2 Fold Change, Spn (ENSMUSG00000051457)","[2]; TC ATA v. TC DMSO, RNA-Seq differential gene expression, gene Spn",0.7001
same,"Log2 Fold Change, Wnt9a (ENSMUSG00000000126)","[2]; TC ATA v. TC DMSO, RNA-Seq differential gene expression, gene Wnt9a",-0.2847
same,Log2 Fold Change,"[2]; gene AW551984, TC ATA v. TC DMSO",0.7046
same,Log2 Fold Change,"[2]; gene Abcd2, TC ATA v. TC DMSO",0.775
same,Log2 Fold Change,"[2]; gene Adgra2, TC ATA v. TC DMSO",-0.4459
same,Log2 Fold Change,"[2]; gene Adgrl2, TC ATA v. TC DMSO",0.4171
same,Log2 Fold Change,"[2]; gene Angpt2, TC ATA v. TC DMSO",1.066
same,Log2 Fold Change,"[2]; gene Angptl2, TC ATA v. TC DMSO",-0.3301
same,Log2 Fold Change,"[2]; gene Asb4, TC ATA v. TC DMSO",0.7498
same,Log2 Fold Change,"[2]; gene Asic1, TC ATA v. TC DMSO",0.4827
same,Log2 Fold Change,"[2]; gene Atg9b, TC ATA v. TC DMSO",-1.183
same,Log2 Fold Change,"[2]; gene Atp1a2, TC ATA v. TC DMSO",0.776
same,Log2 Fold Change,"[2]; gene Atp1b1, TC ATA v. TC DMSO",0.4541
same,Log2 Fold Change,"[2]; gene Cacng7, TC ATA v. TC DMSO",0.4229
same,Log2 Fold Change,"[2]; gene Cbr2, TC ATA v. TC DMSO",1.297
same,Log2 Fold Change,"[2]; gene Ccdc80, TC ATA v. TC DMSO",0.4999
same,Log2 Fold Change,"[2]; gene Cd24a, TC ATA v. TC DMSO",0.8435
same,Log2 Fold Change,"[2]; gene Cd81, TC ATA v. TC DMSO",0.3883
same,Log2 Fold Change,"[2]; gene Chrnb1, TC ATA v. TC DMSO",-0.628
same,Log2 Fold Change,"[2]; gene Ckmt2, TC ATA v. TC DMSO",0.9415
same,Log2 Fold Change,"[2]; gene Clu, TC ATA v. TC DMSO",0.6162
same,Log2 Fold Change,"[2]; gene Col4a6, TC ATA v. TC DMSO",0.4089
same,Log2 Fold Change,"[2]; gene Coq8a, TC ATA v. TC DMSO",0.862
same,Log2 Fold Change,"[2]; gene Creg1, TC ATA v. TC DMSO",0.425
same,Log2 Fold Change,"[2]; gene Csrp2, TC ATA v. TC DMSO",-0.43
same,Log2 Fold Change,"[2]; gene Cth, TC ATA v. TC DMSO",-0.3812
same,Log2 Fold Change,"[2]; gene Dhrs3, TC ATA v. TC DMSO",0.4703
same,Log2 Fold Change,"[2]; gene Dlk1, TC ATA v. TC DMSO",0.4509
same,Log2 Fold Change,"[2]; gene Dmpk, TC ATA v. TC DMSO",0.6567
same,Log2 Fold Change,"[2]; gene Dpep1, TC ATA v. TC DMSO",0.7304
same,Log2 Fold Change,"[2]; gene Epha4, TC ATA v. TC DMSO",0.8248
same,Log2 Fold Change,"[2]; gene Ercc1, TC ATA v. TC DMSO",-0.7217
same,Log2 Fold Change,"[2]; gene Errfi1, TC ATA v. TC DMSO",-0.4719
same,Log2 Fold Change,"[2]; gene Fabp3, TC ATA v. TC DMSO",1.14
same,Log2 Fold Change,"[2]; gene Fam13c, TC ATA v. TC DMSO",0.6886
same,Log2 Fold Change,"[2]; gene Fam110c, TC ATA v. TC DMSO",-0.7995
same,Log2 Fold Change,"[2]; gene Fam114a1, TC ATA v. TC DMSO",0.3512
same,Log2 Fold Change,"[2]; gene Fgf7, TC ATA v. TC DMSO",0.4417
same,Log2 Fold Change,"[2]; gene Fn1, TC ATA v. TC DMSO",0.5505
same,Log2 Fold Change,"[2]; gene Galnt15, TC ATA v. TC DMSO",1.35
same,Log2 Fold Change,"[2]; gene Gas1, TC ATA v. TC DMSO",0.4145
same,Log2 Fold Change,"[2]; gene Ggct, TC ATA v. TC DMSO",-0.7955
same,Log2 Fold Change,"[2]; gene Gm49774, TC ATA v. TC DMSO",-0.6084
same,Log2 Fold Change,"[2]; gene Gse1, TC ATA v. TC DMSO",0.7002
same,Log2 Fold Change,"[2]; gene Gsta3, TC ATA v. TC DMSO",0.7075
same,Log2 Fold Change,"[2]; gene Gstm1, TC ATA v. TC DMSO",0.6142
same,Log2 Fold Change,"[2]; gene Hivep3, TC ATA v. TC DMSO",0.5196
